The values that follow come from patent US7528132B2, “Kinase inhibitors” (Schering Corporation, priority 2005, dated 2009).

Molecules are shown by their SMILES. Some results are limits rather than exact numbers.

T1 sequence (P31749 whole entry): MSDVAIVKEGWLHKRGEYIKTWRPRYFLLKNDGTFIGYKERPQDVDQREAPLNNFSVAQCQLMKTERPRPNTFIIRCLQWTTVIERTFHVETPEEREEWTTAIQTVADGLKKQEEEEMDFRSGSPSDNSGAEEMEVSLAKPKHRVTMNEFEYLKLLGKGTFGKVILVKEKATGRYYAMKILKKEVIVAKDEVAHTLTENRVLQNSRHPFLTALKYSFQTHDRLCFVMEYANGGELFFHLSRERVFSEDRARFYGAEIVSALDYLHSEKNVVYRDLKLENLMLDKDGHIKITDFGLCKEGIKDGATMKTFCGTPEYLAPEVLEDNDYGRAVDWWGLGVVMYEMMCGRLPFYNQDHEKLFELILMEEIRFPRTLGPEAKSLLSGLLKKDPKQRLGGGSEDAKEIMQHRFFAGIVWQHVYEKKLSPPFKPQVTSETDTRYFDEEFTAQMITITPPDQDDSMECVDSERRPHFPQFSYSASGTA

The first test has as its target T1, Akt1 (Homo sapiens, UniProt P31749).
T1 construct: made in house; host or cells: Sf9 insect cells (baculovirus, pBlueBacHis2B)
The test can be described thus: Akt1 kinase assay (33P phosphorylation of biotinylated peptide, Flash plates). Format: biochemical. To be noted: read-out: IC50 (AKT1 inhibition). The text has this:
The assay described below measures the phosphorylation of a biotinylated peptide by active recombinant Akt1 and other kinase isoforms. The biotinylated peptide contains a consensus sequence derived from Akt substrate Gsk3 (Glycogen synthase kinase 3). The ^33P-labeled peptide substrate was captured by streptavidin-coated Flash plates.
Active recombinant Akt1 was expressed in Sf9 insect cells and purified as described by Kumar et al., Biochim. Biophys. Acta. Jun. 15, 2001, 1526(3), 257-268. Biotinylated peptide of the sequence Bio-ahx-RPRAASF was purchased from Syn Pep (Dublin, Calif., USA).
Cloning and Expression of Human Akt1 Sf9 Cells
Human Akt1 cDNA was amplified from a marathon-ready human lung cDNA library (Clonetech) using nested oligo primers as described below. The first round of amplification was carried out using the following primers; Akt1F1 ([…]) and Akt1R1 (TCCATC […]) and for the second round amplification, the primers of the following sequence were used; Akt1F2 (GGATCCTCGG […]) and AKT1R2 (GGTACCATCGTC […]). The PCR product was subcloned into pCRScript plasmid as a BamHI/KpnI fragment and the sequence of the cDNA was confirmed by DNA sequencing. This plasmid was used as a template for reamplification of Akt1 using appropriate primers for subcloning into pBlueBaHis2B into BamH1/EcoRI sites to generate an in frame fusion to (His)6 tag and an anti-Xpress antibody epitope tag at the N-terminus. This construct was sequenced to verify the junction sequences and used for generating a recombinant baculovirus. Growth of the recombinant virus, amplification and determination of viral titer were carried out according to the instructions from the manufacturer (InVitrogen, CA).
Purification of Akt1 from Sf9 Cells
Viral stocks were used to infect large scale Sf9 cells at a multiplicity of infection (MOI) of 2.5. Cells were maintained at 27° C. for 60 h and okadaic acid was added to the cultures to a concentration of 50 nM. Cells were harvested 4 h hours later by centrifugation at 1200 rpm for 30 min followed by freezing at −80° C. until further use. All purification steps were carried out at 4° C. Whole cell pellets were suspended in buffer A (20 mM sodium phosphate buffer pH 7.8, 500 mM NaCl, 1 mM sodium vanadate, 5 mM sodium fluoride, 40 mM β-glycerophosphate, 10 mM imidazole and protease inhibitor cocktail) and lysed using a microfluidizer. The cell extract was centrifuged at 16,000×g for 10 min to remove the debris and directly loaded onto Ni-NTA Superflow resin using a FPLC pump operated at 1 ml/min. The column was washed once with buffer A, once with wash buffer B (20 mM sodium phosphate pH 6.0, 1 mM sodium vanadate, 5 mM sodium fluoride and protease cocktail) and once with wash buffer B containing 0.05% Tween-20 followed by washing with buffer A until OD260 returned to basal level. Proteins were eluted with buffer A containing 200 mM imidazole. Fractions were analyzed by electrophoresis on 10% denaturing polyacrylamide gels and fractions containing 85% pure protein band at 60 KDa were pooled and dialyzed against buffer C (20 mM Tris-HCl pH 7.5, 0.5 mM EDTA,-2 mM DTT, 145 mM NaCl, 0.1 mM sodium vanadate, 5 mM sodium fluoride, 10 mM, β-glycerophosphate and 20% glycerol). Purified protein was stored as aliquots at −80° C. Protein concentrations were determined using BCA protein assay reagent A (Catalog #23228). To examine the identity of the proteins, 2 μg of purified protein was electrophoresed on SDS-polyacrylamide gels and stained with coomassie blue dye or transferred to nitrocellulose membrane and probed with anti-Akt and anti-phospho-specific Akt antibodies using enhanced chemiluminescence (ECL) reagent according to the protocol described by the manufacturer (Amersham).
The kinase assay was performed in 96 well plates at room temperature. Assay solutions and plates were preincubated at room temperature for 5 min. […]
As usually defined, the IC50 is the concentration at which inhibition is half-maximal. In the case of `CC(C)C[C@H]1CN(c2cnnc(-c3ccc4[nH]nc(Cl)c4c3)n2)CCN1` [Compound 64, 3-(3-chloroindazol-5-yl)-5-[(S)-3-isobutylpiperazin-1-yl]-[1,2,4]triazine], the IC50 came to 0.0061 µM.

As to `Cc1n[nH]c2ccc(-c3nnc(CCc4ccccc4)c(N4CCN[C@@H](C(C)C)C4)n3)cc12` [Compound 93, 5-[(S)-3-isopropylpiperazin-1-yl]-3-(3-methylindazol-5-yl)-6-phenethyl-[1,2,4]triazine], the IC50 was 0.00136 µM.

Still in this test, the particulars now being: read-out: IC50 rating (AKT1 inhibition).
With `CC(C)C[C@H]1CN(c2cnnc(-c3ccc4[nH]nc(Cl)c4c3)n2)CCN1` [Compound 64, 3-(3-chloroindazol-5-yl)-5-[(S)-3-isobutylpiperazin-1-yl]-[1,2,4]triazine], the IC50 is < 0.1 µM.

Regarding `Cc1n[nH]c2ccc(-c3nncc(N4CCCC(Cc5ccccc5)(C(=O)O)C4)n3)cc12` (stereo not drawn) [Compound 65], the IC50 is > 1 µM.

As for `COC(=O)C1(Cc2ccccc2)CCCN(c2cnnc(-c3ccc4[nH]nc(C)c4c3)n2)C1` (stereo not drawn) [Compound 66], the IC50 is > 1 µM.

Regarding `Nc1n[nH]c2ccc(-c3nncc(N4CCN[C@@H](Cc5ccccc5)C4)n3)cc12` [Compound 67, 3-(3-aminoindazol-5-yl)-5-[(S)-3-benzylpiperazin-1-yl]-[1,2,4]triazine], the IC50 was > 1 µM.

For the molecule `Cc1n[nH]c2ccc(-c3nncc(N4CCNC(Cc5ccncc5)C4)n3)cc12` (stereo not drawn) [Compound 68, 3-(3-methylindazol-5-yl)-5-[3-(pyridin-4-ylmethyl)piperazin-1-yl]-[1,2,4]triazine], the IC50 was 0.1 to 1 µM.

Regarding `Cc1n[nH]c2ccc(-c3nncc(N4CCC(Cc5ccccc5)C4)n3)cc12` (stereo not drawn) [Compound 69, 3-(3-methylindazol-5-yl)-5-(3-benzylpyrrolidin-1-yl)-[1,2,4]triazine], the IC50 lay within 0.1 to 1 µM.

Take `c1ccc(C[C@H]2CN(c3cnnc(-c4ccc5[nH]nc(-c6ccccc6)c5c4)n3)CCN2)cc1` [Compound 70, 5-[(S)-3-benzylpiperazin-1-yl]-3-(3-phenylindazol-5-yl)-[1,2,4]triazine]: the IC50 is > 1 µM.

Consider `c1ccc(-c2n[nH]c3ccc(-c4nncc(N5CCNCC5)n4)cc23)cc1` [Compound 71, 3-(3-phenylindazol-5-yl)-5-piperazin-1-yl-[1,2,4]triazine], for which the IC50 fell in the range of 0.1 to 1 µM.

`CC(C)C[C@H]1CN(c2cnnc(-c3ccc4[nH]nc(-c5ccccc5)c4c3)n2)CCN1` [Compound 72, 5-[(S)-3-isobutylpiperazin-1-yl]-3-(3-phenylindazol-5-yl)-[1,2,4]triazine]: the IC50 was > 1 µM.

On to `Cc1n[nH]c2ccc(-c3nncc(N4CCN[C@@H](C(C)(C)C)C4)n3)cc12` [Compound 73, 3-(3-methylindazol-5-yl)-5-[(S)-3-tert-butylpiperazin-1-yl]-[1,2,4]triazine], for which the half-inhibitory concentration (IC50) was 0.1 to 1 µM.

In the case of `Cc1ccccc1CC1CN(c2cnnc(-c3ccc4[nH]ncc4c3)n2)CCN1` (stereo not drawn) [Compound 74, 3-indazol-5-yl-5-[3-(2-methylbenzyl)piperazin-1-yl]-[1,2,4]triazine], the half-maximal inhibitory concentration (IC50) fell in the range of 0.1 to 1 µM.

On to `c1cc2[nH]nc(C3CC3)c2cc1-c1nncc(N2CCNCC2)n1` [Compound 75, 3-(3-cyclopropylindazol-5-yl)-5-piperazin-1-yl-[1,2,4]triazine], for which the IC50 is > 1 µM.

Consider `CC(C)C[C@H]1CN(c2cnnc(-c3ccc4[nH]nc(C5CC5)c4c3)n2)CCN1` [Compound 76, 3-(3-cyclopropylindazol-5-yl)-5-[(S)-3-isobutylpiperazin-1-yl]-[1,2,4]triazine], for which the IC50 was 0.1 to 1 µM.

For `c1ccc(C[C@H]2CN(c3cnnc(-c4ccc5[nH]nc(C6CC6)c5c4)n3)CCN2)cc1` [Compound 77, 5-[(S)-3-benzylpiperazin-1-yl]-3-(3-cyclopropylindazol-5-yl)-[1,2,4]triazine], the IC50 is 0.1 to 1 µM.

As to `CCc1n[nH]c2ccc(-c3nncc(N4CCNCC4)n3)cc12` [Compound 78, 3-(3-ethylindazol-5-yl)-5-piperazin-1-yl-[1,2,4]triazine], the 50% inhibitory concentration (IC50) was > 1 µM.

Turning to `CCc1n[nH]c2ccc(-c3nncc(N4CCN[C@@H](CC(C)C)C4)n3)cc12` [Compound 79, 3-(3-ethylindazol-5-yl)-5-[(S)-3-isobutylpiperazin-1-yl]-[1,2,4]triazine], the IC50 was in the range of 0.1 to 1 µM.

`CCc1n[nH]c2ccc(-c3nncc(N4CCN[C@@H](Cc5ccccc5)C4)n3)cc12` [Compound 80, 5-[(S)-3-benzylpiperazin-1-yl]-3-(3-ethylindazol-5-yl)-[1,2,4]triazine]: the 50% inhibitory concentration (IC50) is < 0.1 µM.

For the molecule `Cc1n[nH]c2ccc(-c3nnc(N)c(N4CCN[C@@H](C(C)(C)C)C4)n3)cc12` [Compound 81, 6-amino-3-(3-methylindazol-5-yl)-5-[(S)-3-tert-butylpiperazin-1-yl]-[1,2,4]triazine], the IC50 is < 0.1 µM.

For `Cc1n[nH]c2ccc(-c3nnc(N)c(N4CCNC5(CCCCC5)C4)n3)cc12` [Compound 82, 6-amino-5-(1,4-diaza-spiro[5.5]undec-4-yl)-3-(3-methylindazol-5-yl)-[1,2,4]triazine], the IC50 fell in the range of 0.1 to 1 µM.

For the molecule `Cc1n[nH]c2ccc(-c3nnc(N)c(N4CCC(N)C4)n3)cc12` (stereo not drawn) [Compound 83, 6-amino-5-(3-aminopyrrolidin-1-yl)-3-(3-methylindazol-5-yl)-[1,2,4]triazine], the IC50 was in the range of 0.1 to 1 µM.

For the molecule `CNC1CCN(c2nc(-c3ccc4[nH]nc(C)c4c3)nnc2N)C1` (stereo not drawn) [Compound 84, 6-amino-5-(3-methylaminopyrrolidin-1-yl)-3-(3-methylindazol-5-yl)-[1,2,4]triazine], the IC50 fell in the range of 0.1 to 1 µM.

Regarding `Cc1n[nH]c2ccc(-c3nnc(N)c(N4CCNC5(CCCC5)C4)n3)cc12` [Compound 85, 6-amino-5-(6,9-diaza-spiro[4.5]dec-9-yl)-3-(3-methylindazol-5-yl)-[1,2,4]triazine], the IC50 was in the range of 0.1 to 1 µM.

For `Cc1n[nH]c2ccc(-c3nnc(CCc4ccccc4)c(N4CCNCC4)n3)cc12` [Compound 92, 3-(3-methylindazol-5-yl)-6-phenethyl-5-(piperazin-1-yl)-[1,2,4]triazine], the IC50 is < 0.1 µM.

Regarding `Cc1n[nH]c2ccc(-c3nnc(CCc4ccccc4)c(N4CCN[C@@H](C(C)C)C4)n3)cc12` [Compound 93, 5-[(S)-3-isopropylpiperazin-1-yl]-3-(3-methylindazol-5-yl)-6-phenethyl-[1,2,4]triazine], the IC50 is < 0.1 µM.

`CCC[C@H]1CN(c2nc(-c3ccc4[nH]nc(C)c4c3)nnc2CCc2ccccc2)CCN1` [Compound 94, 3-(3-methylindazol-5-yl)-6-phenethyl-5-[(S)-3-propylpiperazin-1-yl]-[1,2,4]triazine]: the IC50 was < 0.1 µM.
